According to US7399775B2, “β-amyloid protein production/secretion inhibitor” (Daiichi Pharmaceutical Co., Ltd., priority 2001, dated 2008):

**Q.** For `O=C(CCCCC(c1cc(F)ccc1F)S(=O)(=O)c1ccc(Cl)cc1)N1CCCC1` (centres unmarked) [Example 204], which melting point is on record?
**A.** 135 to 136 °C

**Q.** With `CS(=O)(=O)CCCCC(c1cccc(F)c1)S(=O)(=O)c1ccc(Cl)cc1` (centres unmarked) [Example 54, 1-[1-[(4-Chlorophenyl)sulfonyl]-5-(methylsulfonyl)pentyl]-3-fluorobenzene] as the compound, how does the melting point read?
**A.** 116 to 117 °C

**Q.** Which melting point does the source give for `Fc1ccc(F)c(C(Sc2ccc(Cl)cc2)c2ccc(C3OCCO3)cn2)c1` (centres unmarked) [Example 329, 2-[(4-Chlorophenylthio)-(2,5-difluorophenyl)methyl]-5-(1,3-dioxolan-2-yl)pyridine] here?
**A.** 70 to 73 °C

**Q.** Which melting point does the source give for `O=S(=O)(c1ccc(Cl)cc1)C(c1ccncc1)C1CCOCC1` (centres unmarked) [Example 122, 4-[(4-Chlorophenylsulfonyl)(tetrahydropyran-4-yl)methyl]pyridine] here?
**A.** 208 to 209 °C

**Q.** Which melting point does the source give for `Cc1ccc(C(c2cc(F)ccc2F)S(=O)(=O)c2ccc(Cl)cc2)nc1` (centres unmarked) [Example 137, 2-[[(4-Chlorophenyl)sulfonyl]-(2,5-difluorophenyl)methyl]-5-methylpyridine] here?
**A.** 159 to 160 °C

**Q.** Which melting point does the source give for `CS(=O)(=O)CCCCC(c1cnccc1Cl)S(=O)(=O)c1ccc(Cl)cc1` (centres unmarked) [Example 105, 4-Chloro-3-[1-[(4-chlorophenyl)sulfonyl]-5-(methylsulfonyl)pentyl]pyridine] here?
**A.** 156 to 157 °C

**Q.** Which melting point does the source give for `O=S(=O)(c1ccc(Cl)cc1)C(CCC1CCCCC1)c1cc(F)ccc1F` (centres unmarked) [Example 316, 2-[1-(4-Chlorophenylsulfonyl)-3-cyclohexylpropyl]-1,4-difluorobenzene] here?
**A.** 82 to 83 °C

**Q.** With `CC(CCCO)C(c1cc(F)ccc1F)S(=O)(=O)c1ccc(Cl)cc1` (centres unmarked) [Example 39, 5-[(4-Chlorophenyl)sulfonyl]-5-(2,5-difluorophenyl)-4-methyl-1-pentanol] as the compound, how does the melting point read?
**A.** 84 to 86 °C

**Q.** With `O=S(=O)(c1ccc(Cl)cc1)C(Cc1cccnc1)c1cc(F)ccc1F` (centres unmarked) [Example 219, 3-[2-[(4-Chlorophenyl)sulfonyl]-2-(2,5-difluorophenyl)ethyl]pyridine] as the compound, how does the melting point read?
**A.** 162 to 163 °C

**Q.** For `CCCCC(c1ccncc1)S(=O)(=O)c1ccc(Cl)cc1` (centres unmarked) [Example 120, 4-[1-(4-Chlorophenylsulfonyl)pentyl]pyridine], which melting point is on record?
**A.** 109 to 111 °C

**Q.** Which melting point does the source give for `CS(=O)(=O)CCCCC(Cc1ccccc1)S(=O)(=O)c1ccc(Cl)cc1` (centres unmarked) [Example 97, 4-[1-Benzyl-5-(methylsulfonyl)pentylsulfonyl]-1-chlorobenzene] here?
**A.** 68 to 70 °C

**Q.** With `CS(=O)(=O)CCCCC(c1ccc2ccccc2c1)S(=O)(=O)c1ccc(Cl)cc1` (centres unmarked) [Example 67, 2-[1-[(4-Chlorophenyl)sulfonyl]-5-(methylsulfonyl)pentyl]naphthalene] as the compound, how does the melting point read?
**A.** 146 to 147 °C

**Q.** With `CCOC(=O)CC(c1cc(F)ccc1F)S(=O)(=O)c1ccc(Cl)cc1` (centres unmarked) [Example 25, Ethyl 3-[(4-chlorophenyl)sulfonyl]-3-(2,5-difluorophenyl)propionate] as the compound, how does the melting point read?
**A.** 99.5 to 100.5 °C

**Q.** With `Cl.O=S(=O)(c1ccc(Cl)cc1)C1(c2cc(F)ccc2F)CCNCC1` as the compound, how does the melting point read?
**A.** 239 to 246 °C (dec.)

**Q.** Which melting point does the source give for `Cl.O=S(=O)(c1ccc(Cl)cc1)C(c1cc(F)ccc1F)C1CCNCC1` (centres unmarked) here?
**A.** 184 to 190 °C

**Q.** With `O=S(=O)(c1ccc(Cl)cc1)C(CCCCF)c1cc(F)ccc1F` (centres unmarked) [Example 231, 2-[1-(4-Chlorophenylsulfonyl)-5-fluoropentyl]-1,4-difluorobenzene] as the compound, how does the melting point read?
**A.** 77 to 78 °C

**Q.** With `O=S(=O)(c1ccc(Cl)cc1)C1(c2cccnc2Cl)CCCCC1` [Example 109, 2-Chloro-3-[1-(4-chlorophenylsulfonyl)cyclohexyl]pyridine] as the compound, how does the melting point read?
**A.** 129 to 131 °C

**Q.** Which melting point does the source give for `CN1CCC(c2cc(F)ccc2F)(S(=O)(=O)c2ccc(Cl)cc2)CC1` [Example 261, 4-[(4-Chlorophenyl)sulfonyl]-4-(2,5-difluorophenyl)-1-methylpiperidine] here?
**A.** 172 to 175 °C

**Q.** Which melting point does the source give for `O=S(=O)(Cc1ccc(C(c2cc(F)ccc2F)S(=O)(=O)c2ccc(Cl)cc2)nc1)c1ccc(Cl)cc1` (centres unmarked) [Example 328, 2-[(4-Chlorophenylsulfonyl)-(2,5-difluorophenyl)methyl]-5-[(4-chlorophenylsulfonyl)methyl]pyridine] here?
**A.** 186 to 187 °C

**Q.** Which melting point does the source give for `Cc1cccc(CCC(c2cc(F)ccc2F)S(=O)(=O)c2ccc(Cl)cc2)c1` (centres unmarked) [Example 306, 2-[1-(4-Chlorophenylsulfonyl)-3-(3-methylphenyl)propyl]-1,4-difluorobenzene] here?
**A.** 87 to 88 °C

**Q.** Which melting point does the source give for `Cn1c(Cl)cnc1C(c1cc(F)ccc1F)S(=O)(=O)c1ccc(Cl)cc1` (centres unmarked) [Example 151, 2-[[(4-Chlorophenyl)sulfonyl]-(2,5-difluorophenyl)methyl]-1-methyl-5-chloro-1H-imidazole] here?
**A.** 179 to 180 °C

**Q.** For `O=C(CCCC(c1cc(F)ccc1F)S(=O)(=O)c1ccc(Cl)cc1)N1CCCC1` (centres unmarked) [Example 203, 5-[(4-Chlorophenyl)sulfonyl]-5-(2,5-difluorophenyl)-1-(1-pyrrolildinyl)-1-pentanone], which melting point is on record?
**A.** 125 to 126 °C

**Q.** With `CC(CCO)C(c1cc(F)ccc1F)S(=O)(=O)c1ccc(Cl)cc1` (single isomer, unassigned) [Example 239, 4-(4-Chlorophenylsulfonyl)-4-(2,5-difluorophenyl)-3-methyl-1-butanol] as the compound, how does the melting point read?
**A.** 65 to 67 °C

**Q.** Which melting point does the source give for `CS(=O)(=O)CCCCC(c1ccncc1)S(=O)(=O)c1ccc(Cl)cc1` (centres unmarked) [Example 74, 4-[1-[(4-Chlorophenyl)sulfonyl]-5-(methylsulfonyl)pentyl]pyridine] here?
**A.** 181 to 182 °C

**Q.** For `CS(=O)(=O)CCCCC(c1ccc(F)c(F)c1)S(=O)(=O)c1ccc(Cl)cc1` (centres unmarked) [Example 76, 4-[1-(4-Chlorophenylsulfonyl)-5-(methylsulfonyl)pentyl]-1,2-difluorobenzene], which melting point is on record?
**A.** 122 to 124 °C

**Q.** For `O=S(=O)(c1ccc(Cl)cc1)C(Sc1ccccc1)c1cc(F)ccc1F` (centres unmarked) [Example 57, 2-[1-[(4-Chlorophenyl)sulfonyl]-1-phenylthio]methyl-1,4-difluorobenzene], which melting point is on record?
**A.** 84 to 85 °C

**Q.** For `O=S(=O)(c1ccc(Cl)cc1)C(c1cc(F)ccc1F)C(O)CCCCO` (centres unmarked) [Example 235, 6-[(4-Chlorophenyl)sulfonyl]-6-(2,5-difluorophenyl)-1,5-hexanediol], which melting point is on record?
**A.** 108 to 109 °C

**Q.** For `CS(=O)(=O)CCCCC(c1cc(Cl)ccc1F)S(=O)(=O)c1ccc(Cl)cc1` (centres unmarked) [Example 79, 4-Chloro-2-[1-(4-chlorophenylsulfonyl)-5-(methylsulfonyl)pentyl]-1-fluorobenzene], which melting point is on record?
**A.** 116 to 117 °C

**Q.** Which melting point does the source give for `O=S(=O)(c1ccc(Cl)cc1)C(C/C=C\CO)c1cc(F)ccc1F` (centres unmarked) [Example 247, (Z)-5-[(4-Chlorophenyl)sulfonyl]-5-(2,5-difluorophenyl)-2-penten-1-ol] here?
**A.** 60 to 63 °C

**Q.** For `O=S(=O)(c1ccc(Cl)cc1)C(CCCCCCO)c1cc(F)ccc1F` (centres unmarked) [Example 274, 7-[(4-Chlorophenyl)sulfonyl]-7-(2,5-difluorophenyl)-1-heptanol], which melting point is on record?
**A.** 77 to 79 °C

**Q.** Which melting point does the source give for `O=S(=O)(/C(=C/c1ccccc1)c1cc(F)ccc1F)c1ccc(Cl)cc1` [Example 6, E-2-[1-[(4-Chlorophenyl)sulfonyl]-2-phenylethenyl]-1,4-difluorobenzene] here?
**A.** 144.5 to 145 °C

**Q.** With `O=S(=O)(c1ccc(Cl)cc1)C(CCCc1ccccc1)c1cc(F)ccc1F` (centres unmarked) [Example 312, 2-[1-(4-Chlorophenylsulfonyl)-4-phenylbutyl]-1,4-difluorobenzene] as the compound, how does the melting point read?
**A.** 107 to 108 °C

**Q.** Which melting point does the source give for `O=S(=O)(c1ccc(Cl)cc1)C(CCCCO)(CCCCO)c1cc(F)ccc1F` [Example 19, 5-[(4-Chlorophenyl)sulfonyl]-5-(2,5-difluorophenyl)-1,9-nonanediol] here?
**A.** 107 to 108.5 °C

**Q.** For `CN1CCC(C(c2ccncc2)S(=O)(=O)c2ccc(Cl)cc2)CC1` (centres unmarked) [Example 124, 4-[(4-Chlorophenylsulfonyl)(1-methylpiperidin-4-yl)methyl]pyridine], which melting point is on record?
**A.** 176 to 177 °C

**Q.** Which melting point does the source give for `O=S(=O)(c1ccc(Cl)cc1)C(CCc1ccc(Cl)cc1)c1cc(F)ccc1F` (centres unmarked) [Example 310, 2-[3-(4-Chlorophenyl)-1-(4-chlorophenylsulfonyl)propyl]-1,4-difluorobenzene] here?
**A.** 124 to 126 °C

**Q.** With `O=C(O)CCC(c1cc(F)ccc1F)S(=O)(=O)c1ccc(Cl)cc1` (centres unmarked) [Example 200, 4-[(4-Chlorophenyl)sulfonyl]-4-(2,5-difluorophenyl)butyric Acid] as the compound, how does the melting point read?
**A.** 157 to 158 °C

**Q.** With `CS(=O)(=O)CCCCC(c1ccc(F)cc1)S(=O)(=O)c1ccc(Cl)cc1` (centres unmarked) [Example 55, 1-[1-[(4-Chlorophenyl)sulfonyl]-5-(methylsulfonyl)pentyl]-4-fluorobenzene] as the compound, how does the melting point read?
**A.** 141 to 142.5 °C

**Q.** For `CS(=O)(=O)N1CCC(c2cc(F)ccc2F)(S(=O)(=O)c2ccc(Cl)cc2)CC1` [Example 269, 4-[(4-Chlorophenyl)sulfonyl]-4-(2,5-difluorophenyl)-1-(methylsulfonyl)piperidine], which melting point is on record?
**A.** 176 to 178 °C

**Q.** Which melting point does the source give for `COc1ccc(C(CCCCS(C)(=O)=O)S(=O)(=O)c2ccc(Cl)cc2)cc1` (centres unmarked) [Example 85, 1-[1-(4-Chlorophenylsulfonyl)-5-(methylsulfonyl)pentyl]-4-methoxybenzene] here?
**A.** 136 to 138 °C

**Q.** Which melting point does the source give for `O=C(c1cccnc1)N1CCC(c2cc(F)ccc2F)(S(=O)(=O)c2ccc(Cl)cc2)CC1` [Example 265, [4-[(4-Chlorophenyl)sulfonyl]-4-(2,5-difluorophenyl)piperidino](3-pyridyl)methanone] here?
**A.** 119 to 124 °C

**Q.** Which melting point does the source give for `O=S(=O)(c1ccc(Cl)cc1)C(CCc1ccc(Br)cc1)c1cc(F)ccc1F` (centres unmarked) [Example 311, 2-[3-(4-Bromophenyl)-1-(4-chlorophenylsulfonyl)propyl]-1,4-difluorobenzene] here?
**A.** 122 to 124 °C

**Q.** Which melting point does the source give for `CC(C)CCCC(c1cc(F)ccc1F)S(=O)(=O)c1ccc(Cl)cc1` (centres unmarked) [Example 325, 2-[1-(4-Chlorophenylsulfonyl)-5-methylhexyl]-1,4-difluorobenzene] here?
**A.** 79 to 80 °C

**Q.** With `CSC(c1cc(F)ccc1F)S(=O)(=O)c1ccc(Cl)cc1` (centres unmarked) [Example 56, 2-[1-[(4-Chlorophenyl)sulfonyl]-1-methylthio]methyl-1,4-difluorobenzene] as the compound, how does the melting point read?
**A.** 128 to 129 °C

**Q.** For `CCOC(=O)C(=O)NCc1ccc(C(c2cc(F)ccc2F)S(=O)(=O)c2ccc(Cl)cc2)nc1` (centres unmarked) [Example 357, Ethyl 2-[[6-[(4-chlorophenylsulfonyl)(2,5-difluorophenyl)methyl]pyridin-3-yl]methylamino]-2-oxoacetate], which melting point is on record?
**A.** 193 to 194 °C
